# Results: patent publication US12065445B2, “CDK2 inhibitors and methods of using the same” (Cedilla Therapeutics, Inc., priority 2021, dated 2024)
# Tests used:
# Kuramochi cells = assay: BrdU Cell Proliferation Assay; type: cell-based; conditions: read-out: BrdU - KURAMOCHI.1: IC50
# In short: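 Signal is 450 nm absorbance from a peroxidase anti-BrdU ELISA after a 1-hour BrdU label, background-subtracted and normalized to DMSO-treated wells. Kuramochi cells (2,000 per well) had been exposed to compound for 4 days. Dosing used a 10-point dose response in 3-fold steps.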
# [1] = test system: Kuramochi cells labeled with mApple-H2B; assay: IncuCyte Cell Proliferation Assay; type: cell-based
# In short: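 GI50 came from dose-response fits of cell-count fold change between 0 and 72 h, normalized to DMSO controls. Counts were fluorescent nuclei from live-cell images over a 10-point, ½ log series starting at 20 μM.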
Compound,IC50 (Kuramochi cells) [µM],IC50 ([1]; 72 h) [µM],IC50 ([1]; 72 hours) [µM]
C[C@@H](OCC1CCCCC1)[C@H](NC(=O)[C@@H]1CN(C(=O)c2cnn(Cc3ccccc3)c2)CC12CN(C(=O)[C@H]1CC1(C)C)C2)C(=O)N1CC(C)(C)C1 [I-153A],≤ 0.5,≤ 0.5,–
CNC(=O)[C@@H](NC(=O)[C@@H]1CN(C(=O)c2cnn(Cc3ccccc3)c2)CC12CN(C(=O)[C@H]1CC1(C)C)C2)[C@@H](C)OCC1C[C@@H](C)C[C@@H](C)C1 (stereo partly shown) [I-249],0.5 to 5,0.5 to 5,–
CNC(=O)[C@@H](NC(=O)[C@@H]1CN(C(=O)c2scnc2Cl)CC12CN(C(=O)[C@H]1CC1(C)C)C2)[C@@H](C)OCC1CCCCC1 [I-157A],0.5 to 5,0.5 to 5,–
C[C@@H](OCC1CCC(F)(F)CC1)[C@H](NC(=O)[C@@H]1CN(C(=O)c2cncs2)CC12CN(C(=O)[C@H]1CC1(C)C)C2)C(=O)N1C2CCC1COC2 [I-468],≤ 0.5,≤ 0.5,–
COC[C@H]1CCCN(C(=O)[C@@H](NC(=O)[C@@H]2CN(C(=O)c3cncs3)CC23CN(C(=O)[C@H]2CC2(C)C)C3)[C@@H](C)O[C@@H](C)C2CCCCC2)C1 [I-369],0.5 to 5,0.5 to 5,–
CNC(=O)[C@@H](NC(=O)[C@H]1CN(C(=O)c2cnn(Cc3ccccc3)c2)CC12CN(C(=O)[C@H]1CC1(C)C)C2)[C@@H](C)OCC1CCCC1 [I-110B],5 to 10,5 to 20,–
Cc1ccc(CNC(=O)[C@H]2CN(C(=O)c3cnn(Cc4ccccc4)c3)CC23CN(C(=O)[C@H]2CC2(C)C)C3)nn1 [I-381],> 10,> 20,–
C[C@@H](OCC1CCC(F)(F)CC1)[C@H](NC(=O)[C@@H]1CN(C(=O)c2cnn(Cc3ccc(F)cc3)c2)CC12CN(C(=O)[C@H]1CC1(C)C)C2)C(=O)N1CCC(F)(F)CC1 [I-164A],≤ 0.5,≤ 0.5,–
Cc1cc(C(=O)N2CC(C(=O)N[C@H](C(=O)N3CCCCC3)[C@@H](C)OCC3CCCCC3)C3(C2)CN(C(=O)[C@H]2CC2(C)C)C3)[nH]n1 (stereo partly shown) [I-264],> 10,> 20,–
CNC(=O)[C@@H](NC(=O)[C@@H]1CN(C(=O)c2cnn(Cc3ccccc3)c2)CC12CN(C(=O)[C@H]1CC1(C)C)C2)[C@@H](C)OCc1ccc(Br)cc1 [I-263],0.5 to 5,0.5 to 5,–
C[C@@H](OCC1CCCCC1)[C@H](NC(=O)C1CN(C(=O)c2cnn(Cc3ccccc3)c2)CC12CN(C(=O)[C@H]1CC1(C)C)C2)C(=O)N1CCC(F)(F)CC1 (stereo partly shown) [I-149 mixture],≤ 0.5,≤ 0.5,–
CC1(C)C[C@@H]1C(=O)N1CC2(CN(C(=O)c3cnn(Cc4ccccc4)c3)C[C@H]2C(=O)N[C@H]2C[C@@H]2c2cccc(Cl)c2)C1 [I-140A],> 10,5 to 20,–
CNC(=O)[C@@H](NC(=O)[C@@H]1CN(C(=O)c2cncs2)CC12CN(C(=O)[C@H]1CC1(C)C)C2)[C@@H](C)OC[C@H]1CC[C@@H](C)CC1 [I-354],0.5 to 5,≤ 0.5,–
"CNC(=O)[C@@H](NC(=O)[C@@H]1CN(C(=O)c2cnn(Cc3ccccc3)c2)CC12CN(CC(=O)O)C2)[C@@H](C)OCC1CCCCC1 [I-294, 2-((S)-6-(1-benzyl-1H-pyrazole-4-carbonyl)-8-(((2S,3R)-3-(cyclohexylmethoxy)-1-(methylamino)-1-oxobutan-2-yl)carbamoyl)-2,6-diazaspiro[3.4]octan-2-yl)acetic acid]",> 10,> 20,–
C[C@@H](OCC1CCC(F)(F)CC1)[C@H](NC(=O)[C@@H]1CN(C(=O)c2cnn(Cc3ccc(F)cc3)c2)CC12CN(C(=O)[C@H]1CC1(C)C)C2)C(N)=O [I-203],0.5 to 5,0.5 to 5,–
CNC(=O)C(NC(=O)[C@@H]1CN(C(=O)c2cncs2)CC12CN(C(=O)[C@H]1CC1(C)C)C2)c1cccc(N2CCCCC2)n1 (stereo partly shown) [I-432],> 10,> 20,–
C[C@@H](OCC1CCC(F)(F)CC1)[C@H](NC(=O)[C@@H]1CN(C(=O)c2cncs2)CC12CN(C(=O)[C@H]1CC1(C)C)C2)C(=O)N1CCC(C(F)(F)F)CC1 [I-398],≤ 0.5,≤ 0.5,–
CNC(=O)[C@@H](NC(=O)[C@@H]1CN(C(=O)c2cnn(Cc3ccccc3)c2)CC12CN(C(=O)C(C)C1CC1)C2)[C@@H](C)OCc1ccccc1 (stereo partly shown) [I-277],> 10,> 20,–
COc1ccc(CNC(=O)[C@@H]2CN(C(=O)c3cnn(Cc4ccccc4)c3)CC23CN(C(=O)[C@H]2CC2(C)C)C3)nn1 [I-371],> 10,> 20,–
COC[C@H]1CCCN(C(=O)[C@@H](NC(=O)[C@@H]2CN(C(=O)c3cncs3)CC23CN(C(=O)[C@H]2CC2(C)C)C3)[C@@H](C)O[C@H](C)C2CCCCC2)C1 [I-466],0.5 to 5,–,0.5 to 5
C[C@@H](OCC1CCC(F)(F)CC1)[C@H](NC(=O)[C@@H]1CN(C(=O)c2cn[nH]c2)CC12CN(C(=O)C1(C(F)(F)F)CC1)C2)C(=O)N1CCOCC1 [I-302],> 10,> 20,–

Compound,IC50 (Kuramochi cells) [µM],IC50 ([1]; 72 h) [µM],IC50 ([1]; 72 hours) [µM]
C[C@@H](OCC12CCC(CC1)OC2)[C@H](NC(=O)[C@@H]1CN(C(=O)c2cncs2)CC12CN(C(=O)[C@H]1CC1(C)C)C2)C(=O)N1CCC2(CC1)COC2 [I-336],> 10,5 to 20,–
C[C@@H](OCC1CCCCC1)[C@H](NC(=O)C1CN(C(=O)c2cncs2)CC12CN(C(=O)[C@H]1CC1(C)C)C2)C(=O)N1CCC[C@H](CO)C1 (stereo partly shown) [I-193],≤ 0.5,≤ 0.5,–
"CNC(=O)[C@@H](NC(=O)[C@@H]1CN(C(=O)c2cncs2)CC12CN(CC1CCCC1)C2)[C@@H](C)OCC12CCC(CC1)OC2 [I-344, (S)—N-((2S,3R)-3-(2-oxabicyclo[2.2.2]octan-4-ylmethoxy)-1-(methylamino)-1-oxobutan-2-yl)-2-(cyclopentylmethyl)-6-(thiazole-5-carbonyl)-2,6-diazaspiro[3.4]octane-8-carboxamide]",> 10,> 20,–
"CNC(=O)[C@@H](NC(=O)[C@@H]1CN(C(=O)c2cnn(Cc3ccccc3)c2)CC12CN(C(=O)N(C)C(C)C)C2)[C@@H](C)OCC1CCCCC1 [I-274, (S)-6-(1-benzyl-1H-pyrazole-4-carbonyl)-N8-((2S,3R)-3-(cyclohexylmethoxy)-1-(methylamino)-1-oxobutan-2-yl)-N2-isopropyl-N2-methyl-2,6-diazaspiro[3.4]octane-2,8-dicarboxamide]",5 to 10,5 to 20,–
Cc1ccc(C(C)NC(=O)[C@@H]2CN(C(=O)c3cnn(Cc4ccccc4)c3)CC23CN(C(=O)[C@H]2CC2(C)C)C3)nn1 (stereo partly shown) [I-366],0.5 to 5,0.5 to 5,–
CN1CC[C@@H](NC(=O)[C@@H]2CN(C(=O)c3cnn(Cc4ccccc4)c3)CC23CN(C(=O)[C@H]2CC2(C)C)C3)C1=O [I-258],> 10,> 20,–
CNC(=O)[C@@H](NC(=O)[C@H]1CN(C(=O)c2cnn(Cc3ccccc3)c2)CC12CN(C(=O)[C@H]1CC1(C)C)C2)[C@@H](C)OCC(C)C [I-137B],> 10,> 20,–
CC1(C)C[C@@H]1C(=O)N1CC2(CN(C(=O)c3cnn(Cc4ccccc4)c3)C[C@H]2C(=O)N2CCN(CC3CCCCC3)C(=O)C2)C1 [I-253],5 to 10,5 to 20,–
C[C@@H](OCC1(C(F)(F)F)CC1)[C@H](NC(=O)[C@@H]1CN(C(=O)c2cncs2)CC12CN(C(=O)[C@H]1CC1(C)C)C2)C(=O)N1CCC(F)(F)CC1 [I-287],> 10,5 to 20,–
COC[C@H]1CCCN(C(=O)[C@@H](NC(=O)[C@@H]2CN(C(=O)c3cncs3)CC23CN(C(=O)[C@H]2CC2(C)C)C3)[C@@H](C)OCc2ccccc2F)C1 [I-321],0.5 to 5,0.5 to 5,–
C[C@@H](OCC1CCOCC1)[C@H](NC(=O)[C@@H]1CN(C(=O)c2cncs2)CC12CN(C(=O)[C@H]1CC1(C)C)C2)C(=O)N1CCC(F)(F)CC1 [I-288],> 10,5 to 20,–
C[C@@H](OCC1CCCCC1)[C@H](NC(=O)C1CN(C(=O)c2cnn(Cc3ccccc3)c2)CC12CN(C(=O)[C@H]1CC1(C)C)C2)C(=O)N1CC(C)(C)C1 (stereo partly shown) [I-153 mixture],≤ 0.5,≤ 0.5,–
CNC(=O)[C@@H](CO)NC(=O)C1CN(C(=O)c2cnn(Cc3ccccc3)c2)CC12CN(C(=O)[C@H]1CC1(C)C)C2 (stereo partly shown) [I-261],> 10,> 20,–
C[C@@H](OCC1CCC(F)(F)CC1)[C@H](NC(=O)[C@H]1CN(C(=O)c2cnn(Cc3ccc(F)cc3)c2)CC12CN(C(=O)[C@H]1CC1(C)C)C2)C(=O)N1CCC(F)(F)CC1 [I-164B],0.5 to 5,0.5 to 5,–
C[C@@H](OCC1CCC(F)(F)CC1)[C@H](NC(=O)[C@@H]1CN(C(=O)c2cncs2)CC12CN(C(=O)[C@H]1CC1(C)C)C2)C(=O)N1CCC2(CC1)CC2 [I-380],≤ 0.5,≤ 0.5,–
COC1CCN(C(=O)[C@@H](NC(=O)[C@@H]2CN(C(=O)c3cncs3)CC23CN(C(=O)[C@H]2CC2(C)C)C3)[C@@H](C)OCC2CCC(F)(F)CC2)CC1 [I-385],≤ 0.5,≤ 0.5,–
CNC(=O)[C@@H](NC(=O)[C@@H]1CN(C(=O)c2cnn(Cc3ccccc3)c2)CC12CN(C(=O)[C@H]1CC1(C)C)C2)[C@@H](C)SCc1ccccc1 [I-368],> 10,5 to 20,–
"CNC(=O)[C@@H](NC(=O)[C@@H]1CN(C(=O)c2cnn(Cc3ccccc3)c2)CC12CN(C(=O)[C@H]1CC1(C)C)C2)[C@@H](C)OCC1CCCCC1 [I-123A, (S)-6-(1-benzyl-1H-pyrazole-4-carbonyl)-N-((2S,3R)-3-(cyclohexylmethoxy)-1-(methylamino)-1-oxobutan-2-yl)-2-((S)-2,2-dimethylcyclopropane-1-carbonyl)-2,6-diazaspiro[3.4]octane-8-carboxamide]",≤ 0.5,0.5 to 5,–
CNC(=O)[C@@H](NC(=O)[C@@H]1CN(C(=O)c2cncs2)CC12CN(C(=O)[C@H]1CC1(C)C)C2)[C@@H](C)OCC1CCCC2(CC2)C1 (stereo partly shown) [I-370],≤ 0.5,≤ 0.5,–
C[C@@H](OCC1CCCCC1)[C@H](NC(=O)C1CN(C(=O)c2cnn(Cc3ccccc3)c2)CC12CN(C(=O)[C@H]1CC1(C)C)C2)C(=O)N1CC2(CCC2)C1 (stereo partly shown) [I-107],≤ 0.5,≤ 0.5,–
